Literature values as cited in patent US12144796B2, “Formulations for treating cluster symptoms associated with autism spectrum disorder” (Ilera Therapeutics LLC, priority 2019, dated 2024).

solubility in water: insoluble in water
SMILES: CC12CCC(CC1)C(C)(C)O2 [Eucalyptol, 1,3,3-trimethyl-2-oxabicyclo[2.2.2]octane]
